Assays:
[1] = tested on: CSS.3_cut5 (DNA, aptamer) GGACGACGCCAGAAGTTTACGAGGATATGGTAACATAGTC; assay: BLI, steady state fit; settings: Na+ 123 mM (NaCl), K+ 3.5 mM, Ca2+ 2.5 mM, Mg2+ 0.7 mM; sISF, 10 mM HEPES, 30 °C
[2] = tested on: CSS.3_cut3 (DNA, aptamer) GGACGACGCCAGAAGTTTACGAGGATATGGTAACATAGTCGT; assay: BLI, steady state fit; settings: Na+ 123 mM (NaCl), K+ 3.5 mM, Ca2+ 2.5 mM, Mg2+ 0.7 mM; sISF, 10 mM HEPES, 30 °C

- KD [1]: 4200 nM
- KD [2]: 990 nM
SMILES: C[C@]12CCC(=O)C=C1CC[C@@H]1[C@@H]2[C@@H](O)C[C@@]2(C)[C@H]1CC[C@]2(O)C(=O)CO

Source: paper PMC10897929 (2024)
